# Results taken from the supplement of paper PMC10307832.
# How the values were obtained:
# Assay in all cases: relative viability (nuclei count vs DMSO), 5 days (fraction); higher = more cells survive
# Crenolanib + OSI-027 = compound: CC1(COc2ccc3c(c2)ncn3-c2ccc3cccc(N4CCC(N)CC4)c3n2)COC1 [Crenolanib] + COc1cccc2cc(-c3nc([C@H]4CC[C@H](C(=O)O)CC4)n4ncnc(N)c34)[nH]c12 [OSI-027] (partner 0.5 µM)
# How it was run: (§1)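 Relative viability divides the nuclei count in treated wells by that in vehicle wells. Lung cancer cell lines were seeded in 1536-well plates, dosed by pin tool the next day, and fixed and stained after 5 days in one step with final 0.05% Triton X-100, 1% formaldehyde and 1 ug/ml Hoechst. Dosing was a single drug or a fixed anchor-drug dose plus five library-drug doses (not always all listed) in √10 steps, and values are medians of duplicate plates imaged at 4×.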
# Crenolanib + Tozasertib = compound: CC1(COc2ccc3c(c2)ncn3-c2ccc3cccc(N4CCC(N)CC4)c3n2)COC1 [Crenolanib] + Cc1cc(Nc2cc(N3CCN(C)CC3)nc(Sc3ccc(NC(=O)C4CC4)cc3)n2)n[nH]1 [Tozasertib] (partner 0.1 µM)
# How it was run: as §1
# Tivantinib + Alpelisib = compound: O=C1NC(=O)[C@@H](c2cn3c4c(cccc24)CCC3)[C@@H]1c1c[nH]c2ccccc12 [Tivantinib] + Cc1nc(NC(=O)N2CCC[C@H]2C(N)=O)sc1-c1ccnc(C(C)(C)C(F)(F)F)c1 [Alpelisib] (partner 2 µM)
# How it was run: as §1
# Crenolanib + AZD7762 = compound: CC1(COc2ccc3c(c2)ncn3-c2ccc3cccc(N4CCC(N)CC4)c3n2)COC1 [Crenolanib] + NC(=O)Nc1cc(-c2cccc(F)c2)sc1C(=O)N[C@H]1CCCNC1 [AZD7762] (partner 0.2 µM)
# How it was run: as §1
Cell Line,relative viability (Crenolanib + OSI-027; first compound 0.01 µM),relative viability (Crenolanib + OSI-027; first compound 0.03162 µM),relative viability (Crenolanib + OSI-027; first compound 0.1 µM),relative viability (Crenolanib + OSI-027; first compound 0.3162 µM),relative viability (Crenolanib + OSI-027; first compound 1 µM),relative viability (Crenolanib + Tozasertib; first compound 0.01 µM),relative viability (Crenolanib + Tozasertib; first compound 0.03162 µM),relative viability (Crenolanib + Tozasertib; first compound 0.1 µM),relative viability (Crenolanib + Tozasertib; first compound 0.3162 µM),relative viability (Crenolanib + Tozasertib; first compound 1 µM),relative viability (Tivantinib + Alpelisib; first compound 0.01 µM),relative viability (Tivantinib + Alpelisib; first compound 0.03162 µM),relative viability (Tivantinib + Alpelisib; first compound 0.1 µM),relative viability (Tivantinib + Alpelisib; first compound 0.3162 µM),relative viability (Crenolanib + AZD7762; first compound 0.01 µM),relative viability (Crenolanib + AZD7762; first compound 0.03162 µM),relative viability (Crenolanib + AZD7762; first compound 0.1 µM),relative viability (Crenolanib + AZD7762; first compound 0.3162 µM),relative viability (Crenolanib + AZD7762; first compound 1 µM)
NCI-H2228,0.6,0.495,0.513,0.687,0.578,0.291,0.279,0.236,0.223,0.256,0.842,0.644,0.618,0.695,–,–,–,–,–
NCI-H322M,0.648,0.574,0.575,0.634,0.534,0.51,0.503,0.461,0.424,0.465,0.699,0.891,0.719,0.546,0.589,0.52,0.555,0.544,0.695
NCI-H1993,0.527,0.526,0.509,0.567,0.592,0.639,0.588,0.572,0.579,0.543,0.682,0.707,0.644,0.669,0.843,0.802,0.889,0.974,0.688
NCI-H1944,0.554,0.408,0.416,0.397,0.346,0.251,0.248,0.261,0.242,0.234,0.79,0.782,0.735,0.554,0.551,0.587,0.534,0.605,0.497
LXF-289,0.844,0.764,0.752,0.786,0.706,0.183,0.222,0.201,0.181,0.176,1.06,1.01,1.03,1.04,1.03,1.13,1.09,1.11,1.05
NCI-H2405,0.672,0.64,–,0.671,0.655,0.859,0.737,–,0.502,0.691,1.12,0.751,0.777,0.483,0.801,–,0.554,0.773,0.646
NCI-H2023,0.466,0.426,0.378,0.434,0.292,0.471,0.368,0.333,0.371,0.25,0.549,0.642,0.5,0.492,–,–,–,–,–
COR-L23,0.721,0.849,0.654,0.81,0.714,0.214,0.22,0.201,0.206,0.185,0.864,0.754,0.671,0.905,–,–,–,–,–
NCI-H1299,–,–,–,–,–,–,–,–,–,–,1.09,1.01,1.01,1.02,–,–,–,–,–
NCI-H661,0.757,0.721,0.744,0.854,0.776,0.342,0.36,0.35,0.359,0.412,0.404,0.86,0.72,–,–,–,–,–,–
COR-L 105,0.842,0.783,0.642,1,0.691,0.379,0.426,0.365,0.38,0.358,1,0.921,0.783,0.95,–,–,–,–,–
NCI-H2009,0.766,0.636,0.623,0.688,0.581,0.748,0.713,0.724,0.722,0.52,1.15,1.21,1.12,1.14,–,–,–,–,–
IA-LM,–,–,–,–,–,–,–,–,–,–,0.878,0.653,0.853,0.815,–,–,–,–,–
ChaGo-K-1,0.659,0.634,0.572,0.631,0.594,0.26,0.264,0.234,0.209,0.22,–,–,–,–,0.876,0.863,0.866,0.933,0.891
NCI-H1563,0.768,0.807,0.764,0.752,0.748,–,–,–,–,–,1.04,0.89,0.932,1.06,–,–,–,–,–
NCI-H520,0.245,0.284,0.311,0.306,0.318,0.48,0.475,0.514,0.477,0.437,0.921,0.991,0.815,0.925,–,–,–,–,–
NCI-H1703,–,–,–,–,–,–,–,–,–,–,0.499,0.329,0.256,0.334,0.143,0.131,0.114,0.116,0.113
NCI-H1648,0.245,0.271,0.247,0.26,0.251,0.496,0.51,0.602,0.387,0.408,–,–,–,–,0.666,–,0.673,0.673,0.745
NCI-H1792,0.756,0.82,0.691,0.723,0.647,–,–,–,–,–,0.804,0.633,0.699,0.415,0.701,0.686,0.656,0.834,0.754
NCI-H1650,0.666,0.696,0.691,0.667,0.46,0.334,0.508,0.361,0.4,0.357,–,–,–,–,–,–,–,–,–
A549,–,–,–,–,–,–,–,–,–,–,0.769,0.818,0.708,0.79,–,–,–,–,–
NCI-H522,0.936,0.708,0.728,0.655,0.72,0.559,0.604,0.559,0.561,0.576,–,–,–,–,1.03,0.853,0.773,0.88,0.836
NCI-H1623,0.434,0.405,0.418,0.437,0.387,0.492,0.439,0.437,0.41,0.421,–,–,–,–,–,–,–,–,–
SW 900,0.677,0.575,0.46,0.657,0.342,0.62,0.675,0.547,0.457,0.516,–,–,–,–,0.735,–,0.756,0.858,0.522
EBC-1,–,–,–,–,–,–,–,–,–,–,0.948,0.865,0.841,0.719,–,–,–,–,–
